Structures can show the parent of a compound that is named as a salt. Where two headings read alike, the source gives them in different places.
Key:
IL-23 (p19/p40) = experiment: IL23-p19 ELISA, Dendritic, LPS (compound screening using DC cells); format: cell-based, Human
Method: Compound Screening Using DC Cells
Human PBMC cells (400 million) obtained from the vendor were transferred into a T-175 flask containing 15 ml RPMI media (10% FBS) and incubate for 2 hours at 37° C. After 2 hours, the media including floating cells was aspirated out carefully and 12 ml of fresh RPMI media (10% FBS) containing GMCSF (100 ng/ml) and IL4 (20 ng/ml) was added, and the flask was kept in a 37° C. incubator for 7 days.
After 3 days, fresh GMCSF (100 ng/ml) and IL4 (20 ng/ml) were added to the flask and the incubation continued. After 7 days, the fully differentiated cells were harvested by spinning down (1200 rpm/5 min) and aspirating the media. The cells were suspended in fresh RPMI media (10% FBS) containing 50 ng/ml IFNγ (1000 U/ml) and then plated (50K/well in 100 μl) onto a white clear bottom 96 well plate and left in a 37° C. incubator for 24 hours.
After 24 hours incubation, 100 μl of RPMI media was added containing 2× concentrated test compound per well to the above cell-culture media (final concentration becomes 1×) and the plates were pre-incubated for 1 hour at 37° C. before stimulating with LPS.
After 1 hour compound pre-incubation, 10 piper well of 20× concentrated LPS solution in RPMI media was added to give a final concentration of 1 μg/ml. The mixture was shaken and incubated the plates at 37° C. for an additional 18 hours.
155 μl of the supernatant was harvested from each well carefully (without the tip touching the bottom of the well) and to the remaining 50 μl/well of the cell culture plate was added 50 μl of Cell Titer Glo reagent. The mixture was incubated for 1-2 minutes on a shaker and the plate was read for luminescence intensity to determine the compound cytotoxicity. The cell culture supernatant collected above was used to carry out IL23 ELISA (65 μl -Supernatant) and IL10 ELISA (90 μl—Supernatant) as described below.
Human IL-23 (p19/p40) ELISA Protocol (e-Biosciences)
To 10.5 ml PBS add 50 μl of anti-IL23 (p19) was added capture antibody (2.5 μg/ml). The mixture was mixed well and 100 μl of the coating solution was added to each well of the 96 well white plates from Pierce. The wells were covered and incubated overnight at 4° C.
The anti-IL23 (p19)-antibody-coated plates were washed 2× using TBST (use plate washer) and blocked using 200 μl of 0.5% Casein for 1.5-2 hours at room temperature with shaking.
The plates were washed 2× using TBST and the supernatant was transferred (65 μl/well) to the above pre-blocked/IL23(p19)-antibody-coated 96 well plate, and incubated at room temperature for 1.5 hours with shaking.
The plates were washed 4× using TBST (plate washer) and 100 μl/well detection antibody solution prepared from 2 μl of biotin labeled anti-IL-12 (p40/p70) antibody in 11 ml 1% BSA/PBS solution (1-5000 dilution) was added. The plates were incubated for 1 hour with shaking at Room temperature.
Again, the plates were washed 4× with TBST and 100 μl of HRP labeled Streptavidin (R&D Systems) solution (10 μl/10 ml 1% BSA solution) was added, and the plates were incubated at room temperature for another 45 minutes with shaking.
After 45 minutes, the plates were washed with TBST 4× and 100 ul/well Super Signal ELISA Pico Chemiluminescent Substrate from Pierce (3.5 ml A+3.5 ml B+3.5 ml MQ water) was added. The plates were shaken for 1-2 minutes then read on a plate reader.

IL-23p19 = experiment: LPS induced IL23p19 in THP-1 cells (with IFNγ primed) assay; format: cell-based, Human
Procedure, shortened: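 Readout is secreted IL-23p19, quantified by chemiluminescent sandwich ELISA after 18 h LPS (1 ug/mL) stimulation of THP-1 cells that had been IFNγ-primed (50 ng/mL, ~18 h) and given compound 1 h beforehand at 37 °C. EC50 derived by curve fit; cytotoxicity tracked with Cell Titer Glo.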

[1] = Homo sapiens, 18 h, PBMC-derived DC cells, IFNγ primed, LPS 1 μg/ml, 18 hours, 10 pt, read-out: IL23-p19 ELISA, Dendritic, LPS, 10 pt, EC50
[2] = Homo sapiens, THP-1, 18 h, THP-1 cells, IFNγ primed, LPS 1 ug/mL, 18 hours, 10 pt, read-out: IL23-p19 ELISA, THP1-IFNy, LPS, 10 pt EC50
[3] = PBMC-derived DC cells, IFNγ primed, LPS 1 μg/ml, 18 hours, 10 pt, read-out: IL23-p19 ELISA, Dendritic, LPS, 10 pt, EC50
[4] = THP-1 cells, IFNγ primed, LPS 1 ug/mL, 18 hours, 10 pt, read-out: IL23-p19 ELISA, THP1-IFNy, LPS, 10 pt EC50

SMILES	EC50 (IL-23 (p19/p40); [1]) [µM]	EC50 (IL-23p19; [2]) [µM]	also measured
O=C(Nc1cn(C2CCOCC2)nc1-c1ccccn1)c1ccc(-c2cn[nH]c2)o1 [Compound I-23, 5-(1H-pyrazol-4-yl)-N-(3-(pyridin-2-yl)-1-(tetrahydro-2H-pyran-4-yl)-1H-pyrazol-4-yl)furan-2-carboxamide]	0.0372	0.0217	
O=C(Nc1cn(C2COC2)nc1-c1ccccn1)c1ccc(-c2cn[nH]c2)o1 [Compound I-25, N-(1-(oxetan-3-yl)-3-(pyridin-2-yl)-1H-pyrazol-4-yl)-5-(1H-pyrazol-4-yl)furan-2-carboxamide]	0.0441	0.0571	
CCO[C@H]1C[C@@H](n2cc(NC(=O)c3csc(-c4cnn(COP(=O)(O)O)c4)n3)c(-c3ccccn3)n2)C1 [II-82, (4-(4-((1-((1,3-cis)-3-ethoxycyclobutyl)-3-(pyridin-2-yl)-1H-pyrazol-4-yl)carbamoyl)thiazol-2-yl)-1H-pyrazol-1-yl)methyl phosphate bis-arginine salt]			EC50 (IL-23 (p19/p40); Homo sapiens, 18 h, read-out: IL23-p19 ELISA, Dendritic, LPS, 10 pt, EC50 (μM)): 0.176 µM; EC50 (IL-23p19; Homo sapiens, THP-1, 18 h, read-out: IL23-p19 ELISA, THP1-IFNy, LPS, 10 pt EC50 (μM)): 0.0387 µM
CCO[C@H]1C[C@@H](n2cc(NC(=O)c3csc(-c4cnn(COP(=O)(O)O)c4)n3)c(-c3ccccn3)n2)C1 [II-81, (4-(4-((1-((1,3-cis)-3-ethoxycyclobutyl)-3-(pyridin-2-yl)-1H-pyrazol-4-yl)carbamoyl)thiazol-2-yl)-1H-pyrazol-1-yl)methyl phosphate bis-lysine salt]			EC50 (IL-23 (p19/p40); [3]): 0.171 µM; EC50 (IL-23p19; [4]): 0.019 µM
Cn1cc(NC(=O)c2ccc(-c3cnn(COP(=O)(O)O)c3)o2)c(-c2ccccn2)n1 [Compound I-81, [4-{5-((1-Methyl-3-(pyridine-2-yl)-1H-pyrazol-4-yl)carbamoyl)furan-2yl}-1H-pyrazol-1-yl]methyl dihydrogen phosphate]	0.96	0.153	
COCCn1cc(NC(=O)c2ccc(-c3c[nH]nc3C)o2)c(-c2ccccn2)n1 [Compound I-9, N-(1-(2-methoxyethyl)-3-(pyridin-2-yl)-1H-pyrazol-4-yl)-5-(3-methyl-1H-pyrazol-4-yl)furan-2-carboxamide]			EC50 (IL-23 (p19/p40); [3]): 0.309 µM; EC50 (IL-23p19; [4]): 0.281 µM
O=C(Nc1cn([C@H]2CC[C@H](O)CC2)nc1-c1ccccn1)c1ccc(-c2cn[nH]c2)o1 [Compound I-126, N-(1-((1r,4r)-4-hydroxycyclohexyl)-3-(pyridin-2-yl)-1H-pyrazol-4-yl)-5-(1H-pyrazol-4-yl)furan-2-carboxamide formate]	0.0215	0.0819	
COC1CC(n2cc(NC(=O)c3ccc(-c4cn[nH]c4)o3)c(-c3ccccn3)n2)C1 (stereo not drawn) [Compound I-72, N-{1-(3-Methoxycyclobutyl)-3-(pyridine-2-yl)-1H-pyrazol-4-yl}-5-(1H-pyrazol-4-yl)furan-2-carboxamide, Cis isomer]			EC50 (IL-23 (p19/p40); [3]): 0.005 µM; EC50 (IL-23p19; [4]): 0.0568 µM
CCO[C@H]1C[C@@H](n2cc(NC(=O)c3csc(-c4cnn(COP(=O)(O)O)c4)n3)c(-c3ncccc3F)n2)C1 [II-164, (4-(4-((1-((cis)-3-ethoxycyclobutyl)-3-(3-fluoropyridin-2-yl)-1H-pyrazol-4-yl)carbamoyl)thiazol-2-yl)-1H-pyrazol-1-yl)methyl disodium phosphate]			EC50 (IL-23 (p19/p40); [3]): 0.912 µM; EC50 (IL-23p19; [4]): 0.111 µM
O=C(Nc1c[nH]nc1-c1ccccn1)c1ccc(-c2cn[nH]c2)o1 [Compound I-47, 5-(1H-pyrazol-4-yl)-N-(3-(pyridin-2-yl)-1H-pyrazol-4-yl)furan-2-carboxamide]	0.327	0.392	
CCOCCn1cc(NC(=O)c2ccc(-c3c(C)n[nH]c3C)o2)c(-c2ccccn2)n1 [Compound I-58, 5-(3,5-dimethyl-1H-pyrazol-4-yl)-N-(1-(2-ethoxyethyl)-3-(pyridin-2-yl)-1H-pyrazol-4-yl)furan-2-carboxamide formate]	27.5	2.81	

Now from value to molecule, other results behind:

EC50 (IL-23 (p19/p40); [1]) [µM]	EC50 (IL-23p19; [2]) [µM]	SMILES	also measured
0.0333	0.311	O=C(Nc1cn(CC(F)(F)F)nc1-c1ccccn1)c1csc(-c2cn[nH]c2)n1 [II-94, 2-(1H-pyrazol-4-yl)-N-(3-(pyridin-2-yl)-1-(2,2,2-trifluoroethyl)-1H-pyrazol-4-yl)thiazole-4-carboxamide]	
5.45	20.8	Cn1cc(NC(=O)c2csc(-c3cn[nH]c3)n2)c(C(F)(F)F)n1 [II-63, N-(1-methyl-3-(trifluoromethyl)-1H-pyrazol-4-yl)-2-(1H-pyrazol-4-yl)thiazole-4-carboxamide trifluoroacetate salt]	
0.288	0.0844	COCCOCCn1cc(NC(=O)c2csc(-c3cn[nH]c3)n2)c(-c2nccs2)n1 [II-113, N-(1-(2-(2-methoxyethoxy)ethyl)-3-(thiazol-2-yl)-1H-pyrazol-4-yl)-2-(1H-pyrazol-4-yl)thiazole-4-carboxamide]	
0.0962	0.0949	O=C(Nc1cn([C@H]2C[C@H](OCC(F)(F)F)C2)nc1-c1ncccc1F)c1csc(-c2cn[nH]c2)n1 [II-167, N-(3-(3-fluoropyridin-2-yl)-1-((trans)-3-(2,2,2-trifluoroethoxy)cyclobutyl)-1H-pyrazol-4-yl)-2-(1H-pyrazol-4-yl)thiazole-4-carboxamide]	
16.3	4.76	CCOCCn1cc(NC(=O)c2csc(-c3c(C)n[nH]c3C)n2)c(-c2ccccn2)n1 [II-23, 2-(3,5-dimethyl-1H-pyrazol-4-yl)-N-(1-(2-ethoxyethyl)-3-(pyridin-2-yl)-1H-pyrazol-4-yl)thiazole-4-carboxamide, formic acid salt]	
0.129	0.129	O=C(Nc1cn(CC2CCOCC2)nc1-c1ccccn1)c1csc(-c2cn[nH]c2)n1 [II-45, 2-(1H-pyrazol-4-yl)-N-(3-(pyridin-2-yl)-1-((tetrahydro-2H-pyran-4-yl)methyl)-1H-pyrazol-4-yl)thiazole-4-carboxamide formic acid salt]	
0.0748	0.0125	O=C(Nc1cn([C@H]2CC[C@H](NCC(F)F)CC2)nc1-c1ncccn1)c1csc(-c2cn[nH]c2)n1 [II-179, N-(1-((1r,4r)-4-((2,2-difluoroethyl)amino)cyclohexyl)-3-(pyrimidin-2-yl)-1H-pyrazol-4-yl)-2-(1H-pyrazol-4-yl)thiazole-4-carboxamide]	
	0.109	CCO[C@H]1C[C@@H](n2cc(NC(=O)c3csc(-c4cnn(COP(=O)(O)O)c4)n3)c(-c3ncccc3F)n2)C1 [II-163, (4-(4-((1-((cis)-3-ethoxycyclobutyl)-3-(3-fluoropyridin-2-yl)-1H-pyrazol-4-yl)carbamoyl)thiazol-2-yl)-1H-pyrazol-1-yl)methyl dihydrogen phosphate]	EC50 (IL-23 (p19/p40); [3]): 0.348 µM
0.216	0.422	CC(C)n1cc(NC(=O)c2csc(-c3cn[nH]c3)n2)c(-c2ccccn2)n1 [II-59, N-(1-isopropyl-3-(pyridin-2-yl)-1H-pyrazol-4-yl)-2-(1H-pyrazol-4-yl)thiazole-4-carboxamide]	

Reference: patent US10208074B2, “Pyrazole compounds and method for making and using the compounds” (Rigel Pharmaceuticals, Inc., priority 2015, dated 2019)
